Laboratory results reported in the NIST ThermoML archive (doi:10.1021/je200816z).
Numbers after ± are expanded uncertainties.

Details: 351.21 K; Liquid

**Q.** For `CCO` [ethanol], which “vapor or sublimation pressure” value is on record?
**A.** 100 ± 0.9 kPa
